Assay results reported in patent US6489352B2, “Conformationally constrained compounds as pharmaceutical agents” (Warner-Lambert Company, priority 1998, dated 2002).
Structures can show the parent of a compound that is named as a salt.

Tests used:
[1] = biological target: T1, α2δ subunit derived from porcine brain tissue (Sus scrofa, UniProt A0A287BIN3); experiment: radioligand binding assay using [3H]gabapentin and the α2δ subunit; conditions: read-out: IC50 (μM) at α2δ Binding Site
T1 construct: the α2δ subunit derived from porcine brain tissue was used; from tissue; host or cells: porcine brain tissue
T1 sequence (A0A287BIN3 25-1109): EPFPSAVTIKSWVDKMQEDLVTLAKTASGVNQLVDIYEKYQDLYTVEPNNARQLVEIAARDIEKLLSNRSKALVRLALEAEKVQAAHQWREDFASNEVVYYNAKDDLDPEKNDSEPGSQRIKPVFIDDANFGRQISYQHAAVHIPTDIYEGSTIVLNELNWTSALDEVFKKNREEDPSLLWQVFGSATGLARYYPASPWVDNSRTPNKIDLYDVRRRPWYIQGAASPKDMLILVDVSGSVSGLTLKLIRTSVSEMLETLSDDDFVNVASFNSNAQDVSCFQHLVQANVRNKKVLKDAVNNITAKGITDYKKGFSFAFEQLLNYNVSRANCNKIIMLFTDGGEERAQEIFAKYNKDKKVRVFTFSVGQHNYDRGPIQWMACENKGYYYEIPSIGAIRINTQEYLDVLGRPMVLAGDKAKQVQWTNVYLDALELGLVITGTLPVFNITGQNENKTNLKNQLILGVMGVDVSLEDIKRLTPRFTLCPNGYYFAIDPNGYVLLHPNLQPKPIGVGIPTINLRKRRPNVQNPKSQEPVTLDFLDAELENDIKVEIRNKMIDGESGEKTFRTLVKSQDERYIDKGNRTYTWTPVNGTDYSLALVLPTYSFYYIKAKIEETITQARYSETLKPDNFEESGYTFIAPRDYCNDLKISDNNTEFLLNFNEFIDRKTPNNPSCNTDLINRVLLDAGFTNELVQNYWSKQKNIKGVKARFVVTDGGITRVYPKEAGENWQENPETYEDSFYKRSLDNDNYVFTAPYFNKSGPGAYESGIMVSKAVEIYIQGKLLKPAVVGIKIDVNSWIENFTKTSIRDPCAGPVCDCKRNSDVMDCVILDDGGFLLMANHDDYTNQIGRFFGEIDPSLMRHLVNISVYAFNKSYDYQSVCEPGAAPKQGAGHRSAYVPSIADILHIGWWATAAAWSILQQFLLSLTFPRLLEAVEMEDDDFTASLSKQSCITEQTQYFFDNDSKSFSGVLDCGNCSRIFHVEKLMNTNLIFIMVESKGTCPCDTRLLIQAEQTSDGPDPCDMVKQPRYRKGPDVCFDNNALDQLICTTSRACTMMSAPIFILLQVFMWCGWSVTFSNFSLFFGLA

[2] = system: carrageenin-induced hyperalgesia in the rat paw; experiment: Carrageenin-induced hyperalgesia, rat paw pressure test (Randall-Selitto); type: in vivo, rat (male Sprague-Dawley); conditions: dosed orally at 30 mg/kg
Description: Carrageenin-Induced Hyperalgesia
Nociceptive pressure thresholds were measured in the rat paw pressure test using an analgesimeter (Randall-Selitto method: Randall L. O. and Selitto J. J., “A method for measurement of analgesic activity on inflamed tissue,” Arch. Int. Pharmacodyn., 1957;4:409-419). Male Sprague-Dawley rats (70-90 g) were trained on this apparatus before the test day. Pressure was gradually applied to the hind paw of each rat and nociceptive thresholds were determined as the pressure (g) required to elicit paw withdrawal. A cutoff point of 250 g was used to prevent any tissue damage to the paw. On the test day, two to three baseline measurements were taken before animals were administered 100 μL of 2% carrageenin by intraplantar injection into the right hind paw.
(R)-2-Aza-spiro[4.5]decane-4-carboxylic acid hydrochloride was tested in the above carrageenan-induced hyperalgesia model. The compound was dosed orally at 30 mg/kg, and 1 hour postdose gave a percent of maximum possible effect (MPE) of 53%. At 2 hours postdose, it gave only 4.6% of MPE.

Q: Which results are given for `Cl.O=C(O)C1NCC12CCCCC2` (racemic) [(±)-2-Aza-spiro[3.5]nonane-1-carboxylic acid hydrochloride]?
A: melting point: 163 to 165 °C; IC50 [1]: 1.5 µM

Q: With `O=C(O)C1CNCC12CCCCC2` (racemic) [(±)-2-Aza-spiro[4.5]decane-4-carboxylic acid hydrochloride] as the compound, how does the IC50 [1] read?
A: 0.35 µM

Q: Which results are given for `Cl.O=C(O)[C@H]1CNCC12CCCCC2` [(R)-2-Aza-spiro[4.5]decane-4-carboxylic acid hydrochloride]?
A: IC50 [1]: 0.16 µM; percent of maximum possible effect (MPE) ([2]; 1 hour postdose): 53%; percent of maximum possible effect (MPE) ([2]; 2 hours postdose): 4.6%

Q: Which IC50 [1] does the source give for `O=C(O)[C@@H]1CNCC12CCCCC2` [(S)-2-Aza-spiro[4.5]decane-4-carboxylic acid hydrochloride] here?
A: > 10 µM

Q: Which IC50 [1] does the source give for `O=C(O)C1CNCC12C1CCCC2CCC1` (stereo not drawn) [Spiro[bicyclo[3.3.1]nonane-9,3′-pyrrolidine]-4′-carboxylic acid] here?
A: 0.57 µM

Q: For `O=C(O)C1CNCC12C1CC3CC(C1)CC2C3` (stereo not drawn) [Spiro[pyrrolidine-3,2′-tricyclo[3.3.1.1^3,7]decane]-4-carboxylic acid], which IC50 [1] is on record?
A: 0.42 µM
